Source: ChEMBL document CHEMBL1201862, “PubChem BioAssay data set” (2004)
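Growth conditions: 96-well plates. Treatment: test compound, 48 hours, 5 concentrations. Analysis: linear interpolation between bracketing concentrations; unreached endpoints set to highest concentration. GI50: concentration for 50% inhibition of growth.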 Calls of active or inactive are those of the source. Cut-off read from the data, not from the text of the source: active = GI50 up to about 1.1 µM and inactive = higher.

Legend:
Test in all cases: growth of human tumour cells (NCI), 48 h
UO-31 = system: UO-31
HOP-92 = system: HOP-92
Malme-3M = system: Malme-3M
HCC 2998 = system: HCC 2998
SK-OV-3 = system: SK-OV-3
U-251 = system: U-251
UACC-62 = system: UACC-62
PC-3 = system: PC-3
MDA-N = system: MDA-N
KM12 = system: KM12
TK-10 = system: TK-10
OVCAR-5 = system: OVCAR-5
MCF7 = system: MCF7
CAKI-1 = system: CAKI-1
SNB-75 = system: SNB-75
ACHN = system: ACHN
M14 = system: M14
SK-MEL-28 = system: SK-MEL-28
SR = system: SR
BT-549 = system: BT-549

Measured: GI50

COc1ccc(N/N=C2\C3=C(CCC(C)(C)O3)C(=O)c3ccccc32)cc1
inactive: UO-31 18.1 µM | HOP-92 21.1 µM | Malme-3M 20.9 µM | HCC 2998 12.1 µM | SK-OV-3 37 µM | U-251 19.2 µM | UACC-62 14.5 µM | PC-3 21.9 µM | MDA-N 15.6 µM | KM12 13.4 µM | TK-10 20.5 µM | OVCAR-5 19.4 µM | MCF7 12.4 µM | CAKI-1 20 µM | SNB-75 19 µM | ACHN 13.7 µM | M14 20.7 µM | SK-MEL-28 22.2 µM | SR 12.6 µM | BT-549 19.1 µM

CC1(C)O[C@@H]2C[C@H]3[C@@H]4C[C@H](F)C5=CC(=O)C=C[C@]5(C)[C@@]4(F)[C@@H](O)C[C@]3(C)[C@]2(C(=O)CO)O1 [FLUOCINOLONE ACETONIDE]
inactive: UO-31 > 87.5 µM | HOP-92 > 100 µM | Malme-3M > 100 µM | HCC 2998 > 100 µM | SK-OV-3 > 72.3 µM | U-251 > 100 µM | UACC-62 > 100 µM | PC-3 > 72.6 µM | MDA-N > 100 µM | KM12 > 100 µM | TK-10 > 100 µM | OVCAR-5 > 100 µM | MCF7 > 100 µM | CAKI-1 > 100 µM | SNB-75 > 100 µM | ACHN > 100 µM | M14 > 100 µM | SK-MEL-28 > 100 µM | SR > 100 µM | BT-549 > 100 µM
